Values quoted from earlier work in article PMC3758109 (ChemistryOpen, 2012).

Details: humans, intravenous bolus injection

inulin
fraction cleared in fast phase: 76%
fraction cleared in slow phase: 24%
half-life of fast phase: 10 min
half-life of slow phase: 86 min
